What was measured:
Experiment in all cases: KINOMEscan competition binding
Conditions in all cases: compound 2.0 µM
ADCK4 (human) = ADCK4 (human) (UniProt Q96D53)
IKBKB (human) = IKBKB (human) (UniProt O14920)
MAP3K2 (human) = MAP3K2 (human) (UniProt Q9Y2U5)
CLK2 (human) = CLK2 (human) (UniProt P49760)
STK38L (human) = STK38L (human) (UniProt Q9Y2H1)
EPHA5 (human) = EPHA5 (human) (UniProt P54756)
MAST1 (human) = MAST1 (human) (UniProt Q9Y2H9)
TGFBR2 (human) = TGFBR2 (human) (UniProt P37173)
[1] = tested on: EGFR (human), P00533 [L861Q]
[2] = tested on: EGFR (human), P00533 [G719S]
TBK1 (human) = TBK1 (human) (UniProt Q9UHD2)
EPHA7 (human) = EPHA7 (human) (UniProt Q15375)
EPHA3 (human) = EPHA3 (human) (UniProt P29320)
EPHA1 (human) = EPHA1 (human) (UniProt P21709)
MARK4 (human) = MARK4 (human) (UniProt Q96L34)
MAP4K2 (human) = MAP4K2 (human) (UniProt Q12851)
TIE1 (human) = TIE1 (human) (UniProt P35590)
MAP4K3 (human) = MAP4K3 (human) (UniProt Q8IVH8)
CAMK2D (human) = CAMK2D (human) (UniProt Q13557)
PRKCI (human) = PRKCI (human) (UniProt P41743)
PKN2 (human) = PKN2 (human) (UniProt Q16513)
MAP2K2 (human) = MAP2K2 (human) (UniProt P36507)
CDK11B (human) = CDK11B (human) (UniProt P21127)
MUSK (human) = MUSK (human) (UniProt O15146)
STK3 (human) = STK3 (human) (UniProt Q13188)
CLK4 (human) = CLK4 (human) (UniProt Q9HAZ1)
LTK (human) = LTK (human) (UniProt P29376)
MAP4K4 (human) = MAP4K4 (human) (UniProt O95819)
PIM2 (human) = PIM2 (human) (UniProt Q9P1W9)
PLK4 (human) = PLK4 (human) (UniProt O00444)
MINK1 (human) = MINK1 (human) (UniProt Q8N4C8)
MELK (human) = MELK (human) (UniProt Q14680)
CDK5 (human) = CDK5 (human) (UniProt Q00535)
CDK2 (human) = CDK2 (human) (UniProt P24941)
MAPKAPK5 (human) = MAPKAPK5 (human) (UniProt Q8IW41)
CSNK1G3 (human) = CSNK1G3 (human) (UniProt Q9Y6M4)
CRK2 (P.falciparum) = CRK2 (P.falciparum) (UniProt P61075)
CDKL2 (human) = CDKL2 (human) (UniProt Q92772)
HIPK4 (human) = HIPK4 (human) (UniProt Q8NE63)
PAK1 (human) = PAK1 (human) (UniProt Q13153)
MAPK10 (human) = MAPK10 (human) (UniProt P53779)
[3] = tested on: FLT3 (human), P36888 [K663Q]
[4] = tested on: KIT (human), P10721 [L576P]

Sequence of MINK1 (human) (Q8N4C8 whole entry, looked up): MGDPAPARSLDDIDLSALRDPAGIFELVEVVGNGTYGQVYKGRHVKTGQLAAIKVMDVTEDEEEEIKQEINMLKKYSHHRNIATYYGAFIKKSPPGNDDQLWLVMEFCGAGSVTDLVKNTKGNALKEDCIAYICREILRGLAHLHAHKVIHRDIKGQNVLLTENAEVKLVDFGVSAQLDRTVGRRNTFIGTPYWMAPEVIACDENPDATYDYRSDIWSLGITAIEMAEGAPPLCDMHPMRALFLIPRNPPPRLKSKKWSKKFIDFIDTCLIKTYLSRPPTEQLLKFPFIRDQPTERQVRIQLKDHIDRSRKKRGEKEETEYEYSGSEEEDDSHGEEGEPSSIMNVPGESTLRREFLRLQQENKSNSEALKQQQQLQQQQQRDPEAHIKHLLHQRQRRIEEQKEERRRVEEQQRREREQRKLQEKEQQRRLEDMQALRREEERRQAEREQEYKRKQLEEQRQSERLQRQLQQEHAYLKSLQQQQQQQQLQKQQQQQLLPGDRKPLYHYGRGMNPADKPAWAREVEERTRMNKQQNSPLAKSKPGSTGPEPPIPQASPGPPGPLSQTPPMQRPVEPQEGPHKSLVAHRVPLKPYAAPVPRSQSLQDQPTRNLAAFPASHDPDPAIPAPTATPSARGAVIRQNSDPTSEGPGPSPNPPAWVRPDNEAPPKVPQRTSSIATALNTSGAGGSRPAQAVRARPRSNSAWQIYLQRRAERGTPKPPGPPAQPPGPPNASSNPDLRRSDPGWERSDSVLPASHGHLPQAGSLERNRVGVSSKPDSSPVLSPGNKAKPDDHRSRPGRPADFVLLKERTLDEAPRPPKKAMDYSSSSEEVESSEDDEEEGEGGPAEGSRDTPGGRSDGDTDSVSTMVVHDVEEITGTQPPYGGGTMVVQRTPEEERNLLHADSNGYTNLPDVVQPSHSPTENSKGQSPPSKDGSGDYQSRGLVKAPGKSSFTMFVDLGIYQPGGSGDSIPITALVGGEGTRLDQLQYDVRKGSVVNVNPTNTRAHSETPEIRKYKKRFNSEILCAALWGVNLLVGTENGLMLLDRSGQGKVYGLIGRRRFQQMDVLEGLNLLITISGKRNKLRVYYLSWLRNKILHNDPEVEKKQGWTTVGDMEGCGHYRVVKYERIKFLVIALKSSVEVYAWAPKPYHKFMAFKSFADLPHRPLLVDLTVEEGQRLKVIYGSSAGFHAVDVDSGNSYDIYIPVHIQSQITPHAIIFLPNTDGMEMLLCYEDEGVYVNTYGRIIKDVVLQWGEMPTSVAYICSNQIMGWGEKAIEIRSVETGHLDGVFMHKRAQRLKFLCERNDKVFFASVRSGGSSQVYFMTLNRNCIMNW
Sequence of MARK4 (human) (Q96L34 whole entry, looked up): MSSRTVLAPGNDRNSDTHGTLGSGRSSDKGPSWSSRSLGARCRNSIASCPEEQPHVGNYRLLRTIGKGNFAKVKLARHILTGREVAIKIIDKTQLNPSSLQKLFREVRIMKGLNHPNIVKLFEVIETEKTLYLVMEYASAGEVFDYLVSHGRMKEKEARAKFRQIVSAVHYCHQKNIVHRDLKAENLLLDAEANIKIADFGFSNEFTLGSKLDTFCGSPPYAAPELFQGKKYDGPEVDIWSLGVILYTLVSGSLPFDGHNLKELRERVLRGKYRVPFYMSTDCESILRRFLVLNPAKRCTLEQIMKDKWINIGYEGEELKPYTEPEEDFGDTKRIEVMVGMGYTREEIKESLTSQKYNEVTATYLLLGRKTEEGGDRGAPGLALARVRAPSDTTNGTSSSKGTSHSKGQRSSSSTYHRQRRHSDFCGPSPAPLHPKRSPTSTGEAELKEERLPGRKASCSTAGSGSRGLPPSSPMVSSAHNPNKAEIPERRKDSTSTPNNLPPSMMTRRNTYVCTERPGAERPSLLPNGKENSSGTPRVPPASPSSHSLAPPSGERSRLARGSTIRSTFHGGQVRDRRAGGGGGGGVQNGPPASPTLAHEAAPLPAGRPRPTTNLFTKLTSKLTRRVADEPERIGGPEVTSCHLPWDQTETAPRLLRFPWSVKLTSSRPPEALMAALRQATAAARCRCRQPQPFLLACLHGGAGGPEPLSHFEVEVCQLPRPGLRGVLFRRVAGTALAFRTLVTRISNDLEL
Sequence of PAK1 (human) (Q13153 whole entry, looked up): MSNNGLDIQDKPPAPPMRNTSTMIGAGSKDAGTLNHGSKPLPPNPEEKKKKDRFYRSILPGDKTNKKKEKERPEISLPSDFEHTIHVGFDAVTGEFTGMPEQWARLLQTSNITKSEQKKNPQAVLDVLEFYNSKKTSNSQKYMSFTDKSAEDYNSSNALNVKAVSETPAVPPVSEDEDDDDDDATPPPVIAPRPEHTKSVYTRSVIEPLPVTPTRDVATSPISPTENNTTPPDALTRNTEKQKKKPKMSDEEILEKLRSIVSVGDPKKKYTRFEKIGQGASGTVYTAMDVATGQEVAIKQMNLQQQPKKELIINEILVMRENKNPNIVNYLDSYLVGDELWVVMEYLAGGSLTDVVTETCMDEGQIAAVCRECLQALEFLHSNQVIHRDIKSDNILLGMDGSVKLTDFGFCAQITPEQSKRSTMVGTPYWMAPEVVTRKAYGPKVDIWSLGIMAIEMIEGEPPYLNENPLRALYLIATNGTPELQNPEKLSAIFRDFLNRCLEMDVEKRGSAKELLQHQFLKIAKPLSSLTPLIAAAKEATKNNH
Sequence of MAST1 (human) (Q9Y2H9 whole entry, looked up): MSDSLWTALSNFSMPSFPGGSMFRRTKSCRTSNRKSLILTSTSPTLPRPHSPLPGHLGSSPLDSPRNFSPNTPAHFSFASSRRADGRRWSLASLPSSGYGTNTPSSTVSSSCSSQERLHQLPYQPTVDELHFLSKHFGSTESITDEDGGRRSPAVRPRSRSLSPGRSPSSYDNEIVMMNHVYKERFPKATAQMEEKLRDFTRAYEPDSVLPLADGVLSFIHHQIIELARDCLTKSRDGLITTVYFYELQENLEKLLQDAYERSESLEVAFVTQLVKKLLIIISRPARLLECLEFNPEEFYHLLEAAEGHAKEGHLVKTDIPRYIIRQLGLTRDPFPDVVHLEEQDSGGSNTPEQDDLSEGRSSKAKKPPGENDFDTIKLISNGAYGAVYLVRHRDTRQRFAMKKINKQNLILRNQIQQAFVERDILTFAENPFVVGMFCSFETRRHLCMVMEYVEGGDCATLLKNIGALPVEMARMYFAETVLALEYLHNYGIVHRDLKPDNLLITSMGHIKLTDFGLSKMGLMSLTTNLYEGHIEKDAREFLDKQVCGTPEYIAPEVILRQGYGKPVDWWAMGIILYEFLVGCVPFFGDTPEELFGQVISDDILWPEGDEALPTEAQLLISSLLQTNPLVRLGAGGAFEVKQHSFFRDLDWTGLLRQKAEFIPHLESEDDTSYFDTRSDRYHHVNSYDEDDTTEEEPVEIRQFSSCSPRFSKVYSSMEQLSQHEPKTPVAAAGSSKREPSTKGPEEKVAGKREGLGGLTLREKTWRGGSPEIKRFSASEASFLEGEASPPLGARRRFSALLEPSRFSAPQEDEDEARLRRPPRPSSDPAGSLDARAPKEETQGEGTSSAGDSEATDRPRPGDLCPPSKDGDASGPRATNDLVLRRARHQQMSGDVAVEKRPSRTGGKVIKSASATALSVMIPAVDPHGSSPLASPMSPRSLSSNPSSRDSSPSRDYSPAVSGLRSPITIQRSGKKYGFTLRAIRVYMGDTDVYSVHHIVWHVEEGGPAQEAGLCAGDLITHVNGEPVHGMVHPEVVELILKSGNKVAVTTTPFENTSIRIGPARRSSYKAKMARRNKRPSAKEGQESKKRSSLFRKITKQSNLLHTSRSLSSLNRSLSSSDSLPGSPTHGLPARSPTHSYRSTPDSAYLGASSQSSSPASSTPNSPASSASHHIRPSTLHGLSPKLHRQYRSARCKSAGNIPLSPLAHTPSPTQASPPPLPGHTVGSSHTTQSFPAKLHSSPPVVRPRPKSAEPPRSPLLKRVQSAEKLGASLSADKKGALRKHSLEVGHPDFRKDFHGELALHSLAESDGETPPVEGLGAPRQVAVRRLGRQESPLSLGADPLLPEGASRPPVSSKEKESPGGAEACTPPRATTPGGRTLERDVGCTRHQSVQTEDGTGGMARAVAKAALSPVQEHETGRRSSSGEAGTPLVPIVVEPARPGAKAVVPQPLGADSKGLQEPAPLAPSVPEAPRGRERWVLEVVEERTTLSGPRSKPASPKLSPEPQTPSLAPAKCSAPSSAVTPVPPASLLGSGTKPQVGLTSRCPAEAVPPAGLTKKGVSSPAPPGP
Sequence of MAP3K2 (human) (Q9Y2U5 whole entry, looked up): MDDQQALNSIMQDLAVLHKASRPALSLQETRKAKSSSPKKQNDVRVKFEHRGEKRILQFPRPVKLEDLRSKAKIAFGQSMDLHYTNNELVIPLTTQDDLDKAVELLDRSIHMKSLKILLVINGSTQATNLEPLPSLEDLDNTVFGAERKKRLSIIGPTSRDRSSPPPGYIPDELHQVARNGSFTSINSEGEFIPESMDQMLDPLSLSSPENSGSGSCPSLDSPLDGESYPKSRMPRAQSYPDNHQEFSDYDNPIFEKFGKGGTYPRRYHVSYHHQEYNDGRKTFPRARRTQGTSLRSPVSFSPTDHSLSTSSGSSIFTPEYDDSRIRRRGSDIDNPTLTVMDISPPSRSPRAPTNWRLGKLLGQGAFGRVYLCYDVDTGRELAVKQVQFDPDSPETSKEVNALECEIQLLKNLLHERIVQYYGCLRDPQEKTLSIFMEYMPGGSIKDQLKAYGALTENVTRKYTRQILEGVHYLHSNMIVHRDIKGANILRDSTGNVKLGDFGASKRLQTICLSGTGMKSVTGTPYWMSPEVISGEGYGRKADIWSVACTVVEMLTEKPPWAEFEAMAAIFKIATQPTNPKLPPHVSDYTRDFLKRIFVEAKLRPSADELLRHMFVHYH

## N#Cc1ccc2ncnc(NCCc3ccc4ccccc4c3)c2c1
ADCK4 (human)
  kinase still bound, per cent of control: 100%
IKBKB (human)
  kinase still bound, per cent of control: 100%
MAP3K2 (human)
  kinase still bound, per cent of control: 80%
CLK2 (human)
  kinase still bound, per cent of control: 74%
STK38L (human)
  kinase still bound, per cent of control: 90%
EPHA5 (human)
  kinase still bound, per cent of control: 100%
MAST1 (human)
  kinase still bound, per cent of control: 84%
TGFBR2 (human)
  kinase still bound, per cent of control: 92%
[1]
  kinase still bound, per cent of control: 60%
[2]
  kinase still bound, per cent of control: 86%
TBK1 (human)
  kinase still bound, per cent of control: 100%
EPHA7 (human)
  kinase still bound, per cent of control: 93%
EPHA3 (human)
  kinase still bound, per cent of control: 91%
EPHA1 (human)
  kinase still bound, per cent of control: 89%
MARK4 (human)
  kinase still bound, per cent of control: 85%
MAP4K2 (human)
  kinase still bound, per cent of control: 60%
TIE1 (human)
  kinase still bound, per cent of control: 90%
MAP4K3 (human)
  kinase still bound, per cent of control: 100%
CAMK2D (human)
  kinase still bound, per cent of control: 100%
PRKCI (human)
  kinase still bound, per cent of control: 100%
PKN2 (human)
  kinase still bound, per cent of control: 100%
MAP2K2 (human)
  kinase still bound, per cent of control: 80%
CDK11B (human)
  kinase still bound, per cent of control: 99%
MUSK (human)
  kinase still bound, per cent of control: 100%
STK3 (human)
  kinase still bound, per cent of control: 74%
CLK4 (human)
  kinase still bound, per cent of control: 60%
LTK (human)
  kinase still bound, per cent of control: 99%
MAP4K4 (human)
  kinase still bound, per cent of control: 97%
PIM2 (human)
  kinase still bound, per cent of control: 89%
PLK4 (human)
  kinase still bound, per cent of control: 100%
MINK1 (human)
  kinase still bound, per cent of control: 100%
MELK (human)
  kinase still bound, per cent of control: 84%
CDK5 (human)
  kinase still bound, per cent of control: 100%
CDK2 (human)
  kinase still bound, per cent of control: 93%
MAPKAPK5 (human)
  kinase still bound, per cent of control: 79%
CSNK1G3 (human)
  kinase still bound, per cent of control: 81%
CRK2 (P.falciparum)
  kinase still bound, per cent of control: 100%
CDKL2 (human)
  kinase still bound, per cent of control: 71%
HIPK4 (human)
  kinase still bound, per cent of control: 81%
PAK1 (human)
  kinase still bound, per cent of control: 82%
MAPK10 (human)
  kinase still bound, per cent of control: 100%
[3]
  kinase still bound, per cent of control: 98%
[4]
  kinase still bound, per cent of control: 86%

Source: the kinase profiling compilation of Christmann-Franck et al. (2016)
